Assay results taken from patent US8153809B2, “Dihydropyridone ureas as P2X7 modulators” (Roche Palo Alto LLC, priority 2008, dated 2012).

Target: T1, P2X7 (UniProt Q99572)
T1 sequence (Q99572 1-595): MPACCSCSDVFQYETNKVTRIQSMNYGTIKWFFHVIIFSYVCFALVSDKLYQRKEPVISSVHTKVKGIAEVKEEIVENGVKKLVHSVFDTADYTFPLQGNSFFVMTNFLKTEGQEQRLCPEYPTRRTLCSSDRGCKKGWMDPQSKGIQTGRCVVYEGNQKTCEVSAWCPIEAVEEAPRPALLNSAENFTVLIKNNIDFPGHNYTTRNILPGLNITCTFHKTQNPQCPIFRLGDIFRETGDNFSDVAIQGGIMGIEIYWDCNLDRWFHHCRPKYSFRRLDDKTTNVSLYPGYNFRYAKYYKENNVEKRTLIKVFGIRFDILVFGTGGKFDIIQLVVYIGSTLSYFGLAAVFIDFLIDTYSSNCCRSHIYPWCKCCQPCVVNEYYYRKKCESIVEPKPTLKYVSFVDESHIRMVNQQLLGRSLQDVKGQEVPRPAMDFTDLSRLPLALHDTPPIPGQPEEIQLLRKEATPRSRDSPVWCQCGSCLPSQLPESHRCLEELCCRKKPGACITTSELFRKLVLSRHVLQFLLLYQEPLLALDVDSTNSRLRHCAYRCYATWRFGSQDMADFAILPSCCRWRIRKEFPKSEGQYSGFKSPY
Assay: pIC50 values for P2X7 (Table 1)
Type: cell-based
Procedure: Intracellular Calcium Flux (FLIPR) Assay
Compound and Reagent Preparation
Stock solutions of compounds were prepared from powders as a 10 mM DMSO stock solution. These solutions were stored at RT during the two week period of these experiments to prevent freeze-thaw of the DMSO stocks. The DMSO stocks were added to the appropriate assay buffer at a concentration of 10 μM, and then diluted serially to the final concentrations that were tested. […] The aqueous solutions of compounds as well as ATP (Sigma A7699) and BzATP (Sigma B6396) were prepared fresh for each day of experiment.
1321N1 cells stably expressing the full length human P2X7 gene (1321N1-hP2X7) and HEK293 cells stably expressing the full length rat P2X7 gene (HEK293-rP2X7) were obtained from the Roche Cell Culture Facility. 1321N1-hP2X7 cells were grown in Dulbecco's Modified Eagle's Medium (DMEM) high glucose supplemented with 10% FBS and 250 μg/mL G418. HEK293-rP2X7 cells were grown in DMEM/F-12 supplemented with 10% FBS, 1 mM CaCl2, 2 mM MgCl2, 2 mM L-Glutamine and 500 μg/ml G418. Cells were split such that they never became >70% confluent.
Intracellular Calcium Flux (FLIPR)
On the day prior to the experiment, 1321N1-hP2X7 or HEK293-rP2X7 cells were released into suspension with calcium-free PBS+Versene and washed by centrifugation with calcium-free PBS to remove the Versene.
On the day of the experiment, plates were washed with FLIPR buffer (calcium- and magnesium-free Hank's Balanced Salt Solution (HBSS) supplemented with 10 mM Hepes, 2.5 mM probenecid and 2 mM calcium chloride) using a BIO-TEK 96 channel plate washer and incubated with […] fluo-3 dye at 37° C. for one hr. The dye was then removed by plate washing and the cells were allowed to equilibrate for 20 min at room temperature with antagonist or vehicle (FLIPR buffer). Agonist (100 μM BzATP final concentration for hP2X7; 5 μM BzATP final concentration or rP2X7) was added online with the FLIPR and fluorescence measurements made at 1 sec intervals for 60 sec followed by 3 sec intervals for a further 4 min (5 min total). A final addition of 5 μM ionomycin was made and the maximal BzATP-evoked fluorescence normalized to the maximal ionomycin-evoked fluorescence.

pIC50	SMILES
6.726	CSc1cc(NC(=O)N2C=CC(=O)C[C@H]2c2ccc(F)cc2)c(Br)cc1Cl [Compound 14, (S)-2-(4-Fluoro-phenyl)-4-oxo-3,4-dihydro-2H-pyridine-1-carboxylic acid (2-bromo-4-chloro-5-methylsulfanyl-phenyl)-amide]
5.94	CS(=O)(=O)c1cc(NC(=O)N2C=CC(=O)C[C@H]2c2ccc(F)cc2)c(Br)cc1Cl [Compound 15, (S)-2-(4-Fluoro-phenyl)-4-oxo-3,4-dihydro-2H-pyridine-1-carboxylic acid (2-bromo-4-chloro-5-methanesulfonyl-phenyl)-amide]
6.623	C[S@@+]([O-])c1cc(NC(=O)N2C=CC(=O)C[C@H]2c2ccc(F)cc2)c(Br)cc1Cl [Compound 16, (S)-2-(4-Fluoro-phenyl)-4-oxo-3,4-dihydro-2H-pyridine-1-carboxylic acid [2-bromo-4-chloro-5-((R)-methanesulfinyl)-phenyl]-amide]
5.86	C[S@+]([O-])c1cc(NC(=O)N2C=CC(=O)C[C@H]2c2ccc(F)cc2)c(Br)cc1Cl [Compound 17, (S)-2-(4-Fluoro-phenyl)-4-oxo-3,4-dihydro-2H-pyridine-1-carboxylic acid [2-bromo-4-chloro-5-((S)-methanesulfinyl)-phenyl]-amide]
6.286	O=C1C=CN(C(=O)Nc2cc(F)c(Cl)cc2Br)[C@H](c2ccc(F)cc2)C1 [Compound 18, (S)-2-(4-Fluoro-phenyl)-4-oxo-3,4-dihydro-2H-pyridine-1-carboxylic acid (2-bromo-4-chloro-5-fluoro-phenyl)-amide]
6.71	O=C1C=CN(C(=O)Nc2cc(O)c(Cl)cc2Br)[C@H](c2ccc(F)cc2)C1 [Compound 24, (S)-2-(4-Fluoro-phenyl)-4-oxo-3,4-dihydro-2H-pyridine-1-carboxylic acid (2-bromo-4-chloro-5-hydroxy-phenyl)-amide]
7.26	COC(=O)c1cc(NC(=O)N2C=CC(=O)C[C@H]2c2ccc(F)cc2)c(Br)cc1Cl [Compound 27, 4-Bromo-2-chloro-5-{[(S)-2-(4-fluoro-phenyl)-4-oxo-3,4-dihydro-2H-pyridine-1-carbonyl]-amino}-benzoic acid methyl ester]
5.365	O=C(O)COc1cc(NC(=O)N2C=CC(=O)C[C@H]2c2ccc(F)cc2)c(Br)cc1Cl [Compound 32, (4-Bromo-2-chloro-5-{[(S)-2-(4-fluoro-phenyl)-4-oxo-3,4-dihydro-2H-pyridine-1-carbonyl]-amino}-phenoxy)-acetic acid]

Second part, the molecule before the results:

SMILES	pIC50
COc1cc(NC(=O)N2C=CC(=O)C[C@H]2c2ccc(F)cc2)c(C(C)C)cc1OC [Compound 13, (S)-2-(4-Fluoro-phenyl)-4-oxo-3,4-dihydro-2H-pyridine-1-carboxylic acid (2-isopropyl-4,5-dimethoxy-phenyl)-amide]	6.66
COc1cc(Br)c(NC(=O)N2C=CC(=O)C[C@H]2c2cccc(F)c2)cc1OC [Compound 19, (S)-2-(3-Fluoro-phenyl)-4-oxo-3,4-diohydro-2H-pyridine-1-carboxylic acid (2-bromo-4,5-dimethoxy-phenyl)-amide]	8.56
COc1cc(NC(=O)N2C=CC(=O)CC2c2cccnc2)c(Br)cc1C (centres unmarked) [Compound 20, 4-Oxo-3,4-dihydro-2H-[2,3′]bipyridinyl-1-carboxylic acid (2-bromo-5-methoxy-4-methyl-phenyl)-amide]	5.995
COc1ccc(Br)c(NC(=O)N2C=CC(=O)C[C@H]2c2ccc(F)cc2)n1 [Compound 21, (S)-2-(4-Fluoro-phenyl)-4-oxo-3,4-dihydro-2H-pyridine-1-carboxylic acid (3-bromo-6-methoxy-pyridin-2-yl)-amide]	6.32
COC(=O)c1cc(Br)c(NC(=O)N2C=CC(=O)CC2c2ccc(F)cc2)cc1OC (centres unmarked) [Compound 22, 5-Bromo-4-{[2-(4-fluoro-phenyl)-4-oxo-3,4-dihydro-2H-pyridine-1-carbonyl]-amino}-2-methoxy-benzoic acid methyl ester]	7.15
Cc1ccc(S(=O)(=O)n2nc(C)c3cc(Br)c(NC(=O)N4C=CC(=O)C[C@H]4c4ccc(F)cc4)cc32)cc1 [Compound 23, (S)-2-(4-Fluoro-phenyl)-4-oxo-3,4-dihydro-2H-pyridine-1-carboxylic acid [5-bromo-3-methyl-1-(toluene-4-sulfonyl)-1H-indazol-6-yl]-amide]	5.245
CNC(=O)COc1cc(NC(=O)N2C=CC(=O)C[C@H]2c2ccc(F)cc2)c(Br)cc1Cl [Compound 25, (S)-2-(4-Fluoro-phenyl)-4-oxo-3,4-dihydro-2H-pyridine-1-carboxylic acid (2-bromo-4-chloro-5-methylcarbamoylmethoxy-phenyl)-amide]	6.785
COc1cc(C)c(NC(=O)N2C=CC(=O)C[C@H]2c2ccc(F)cc2)cc1OC [Compound 26, (S)-2-(4-Fluoro-phenyl)-4-oxo-3,4-dihydro-2H-pyridine-1-carboxylic acid (4,5-dimethoxy-2-methyl-phenyl)-amide]	7.93
COc1cc(NC(=O)N2C=CC(=O)C[C@H]2c2ccc(F)cc2)c(Br)cc1S(C)(=O)=O [Compound 28, (S)-2-(4-Fluoro-phenyl)-4-oxo-3,4-dihydro-2H-pyridine-1-carboxylic acid (2-bromo-4-methanesulfonyl-5-methoxy-phenyl)-amide]	6.435
COc1cc(NC(=O)N2C=CC(=O)C[C@H]2c2cccc(F)c2)c(Br)cc1C [Compound 29, (S)-2-(3-Fluoro-phenyl)-4-oxo-3,4-dihydro-2H-pyridine-1-carboxylic acid (2-bromo-5-methoxy-4-methyl-phenyl)-amide]	7.93
COC(=O)COc1cc(NC(=O)N2C=CC(=O)C[C@H]2c2ccc(F)cc2)c(Br)cc1Cl [Compound 30, (4-Bromo-2-chloro-5-{[(S)-2-(4-fluoro-phenyl)-4-oxo-3,4-dihydro-2H-pyridine-1-carbonyl]-amino}-phenoxy)-acetic acid methyl ester]	6.7
COC(=O)COc1cc(N(CC(=O)OC)C(=O)N2C=CC(=O)C[C@H]2c2ccc(F)cc2)c(Br)cc1Cl [Compound 31, (4-Bromo-2-chloro-5-{[(S)-2-(4-fluoro-phenyl)-4-oxo-3,4-dihydro-2H-pyridine-1-carbonyl]-methoxycarbonylmethyl-amino}-phenoxy)-acetic acid methyl ester]	5.27
COCCOc1cc(NC(=O)N2C=CC(=O)C[C@H]2c2ccc(F)cc2)c(Br)cc1Cl [Compound 33, (S)-2-(4-Fluoro-phenyl)-4-oxo-3,4-dihydro-2H-pyridine-1-carboxylic acid [2-bromo-4-chloro-5-(2-methoxy-ethoxy)-phenyl]-amide]	7.27
COc1ccc(NC(=O)N2C=CC(=O)C[C@H]2c2ccc(F)cc2)cc1OC [Compound 34, (S)-2-(4-Fluoro-phenyl)-4-oxo-3,4-dihydro-2H-pyridine-1-carboxylic acid (3,4-dimethoxy-phenyl)-amide]	7.2425
COc1cc(NC(=O)N2C=CC(=O)C[C@H]2c2ccc(F)cc2)c(F)cc1Cl [Compound 35, (S)-2-(4-Fluoro-phenyl)-4-oxo-3,4-dihydro-2H-pyridine-1-carboxylic acid (4-chloro-2-fluoro-5-methoxy-phenyl)-amide]	7.195
